The values below come from US20230146455A1, “TREATMENT OF INFLAMMATORY DISEASES WITH PEPTIDES AND PHARMACEUTICAL COMPOSITIONS” (Yuyu Pharma, Inc., priority 2020, published 2023).

“And” between values parts separate entries of the source, which are not always exact repeats. Equal entries are not always repeated. Where a SMILES comes first, the peptide text is derived from it. [ ]: non-standard residue; d: D form. Hyp = O=C(O)[C@@H]1C[C@@H](O)CN1

This assay concerns GM-CSF. Briefly: Example 9 Luminex, LPS hPBMCs: GM-CSF. The format is cell-based, human. The protocol:
Treatment Human PBMCs were pretreated with YY-101, YDE-011 and YDE-043 or reference compound; Xiidra® at various concentration (ranging from 1 nM to 100 uM) for 2 h before stimulation. An equal volume of 0.5% DMSO was used as a vehicle control. Then, the cells were treated with LPS at 5 ug/ml. The supernatants from treated cells were harvested at 24 h and placed in a 96 well for Luminex cytokine & chemokine profiling using a Luminex 200 multiplex assay (Luminex; R&D system, USA).
The main study arm with triplicate wells per group in a 24-well plate: • 1. Blank • 2. PBMC: 0.5% DMSO • 3. PBMC+LPS (5 ug/ml) • 4. PBMC+YY-101 100 uM • 5. PBMC+YY-101 10 uM • 6. PBMC+YY-101 1 uM • 7. PBMC+YY-101 0.1 uM • 8. PBMC+YY-101 0.01 uM • 9. PBMC+LPS (5 ug/ml)+Xiidra®100 uM • 10. PBMC+LPS (5 ug/ml)+Xiidra® 10 uM • 11. PBMC+LPS (5 ug/ml)+Xiidra® 1 uM • 12. PBMC+LPS (5 ug/ml)+Xiidra®0.1 uM • 13. PBMC+LPS (5 ug/ml)+Xiidra®0.01 uM • 14. PBMC+LPS (5 ug/ml)+Xiidra®0.001 uM • 15. PBMC+LPS (5 ug/ml)+YY-101 100 uM • 16. PBMC+LPS (5 ug/ml)+YY-101 10 uM • 17. PBMC+LPS (5 ug/ml)+YY-101 1 uM • 18. PBMC+LPS (5 ug/ml)+YY-101 0.1 uM • 19. PBMC+LPS (5 ug/ml)+YY-101 0.01 uM • 20. PBMC+LPS (5 ug/ml)+YY-101 0.001 uM • 21. PBMC+LPS (5 ug/ml)+YDE-011 100 uM • 22. PBMC+LPS (5 ug/ml)+YDE-011 10 uM • 23. PBMC+LPS (5 ug/ml)+YDE-011 1 uM • 24. PBMC+LPS (5 ug/ml)+YDE-011 0.1 uM • 25. PBMC+LPS (5 ug/ml)+YDE-011 0.01 uM • 26. PBMC+LPS (5 ug/ml)+YDE-011 0.001 uM • 27. PBMC+LPS (5 ug/ml)+YDE-043 100 uM • 28. PBMC+LPS (5 ug/ml)+YDE-043 10 uM • 29. PBMC+LPS (5 ug/ml)+YDE-043 1 uM • 30. PBMC+LPS (5 ug/ml)+YDE-043 0.1 uM • 31. PBMC+LPS (5 ug/ml)+YDE-043 0.01 uM • 32. PBMC+LPS (5 ug/ml)+YDE-043 0.001 uM
Multiplex assay was used to measure 30 cytokines and chemokines. The 1:2, 1:10 and 1:200 diluted cell supernatant and serial dilution of the standard were dispensed into a 96 well plate at 50 ul/well. Then, the pre-mixed cocktail of antibody-coated magnetic beads was dispensed at 50 ul/well and incubated at room temperature for 2 h in a horizontal orbital microplate shaker at 800±500 rpm. The beads were washed using a magnetic device to prevent loss. The biotin-antibody was dispensed in 50 ul of each well and incubated at room temperature for 1 h in a shaker at 800±500 rpm. After washing, streptavidin-PE was added at 50 ul/well and incubated at room temperature for 30 min in a shaker under the same conditions. Finally, after washing, wash buffer (100 ul/well) was added to the plate and incubated in a shaker for 2 min. The Luminex™ 200 setting were set according to the manufacturer's protocol. The data was calculated with a standard five-parameter logistic nonlinear regression analysis of the data (xPonent software 4.2, USA). The levels of cytokine/chemokine are normalized to the live cell counts (1×10^5 cells/mL) and presented as concentrations per mL (pg/mL or ng/mL).

Where [1] appears, read: PBMC + LPS(5 ug/ml) + test article 0.001 uM, Mean.
The mark [2] stands for this setting: PBMC + LPS(5 ug/ml) + test article 0.001 uM, single replicates.
[3] abbreviates: PBMC + LPS(5 ug/ml) + test article 0.01 uM, Mean.
[4] abbreviates: PBMC + LPS(5 ug/ml) + test article 0.01 uM, single replicates.
[5] abbreviates: PBMC + LPS(5 ug/ml) + test article 0.1 uM, Mean.
Setting [6] is: PBMC + LPS(5 ug/ml) + test article 0.1 uM, single replicates.
Setting [7] is: PBMC + LPS(5 ug/ml) + test article 1 uM, Mean.
The mark [8] stands for this setting: PBMC + LPS(5 ug/ml) + test article 1 uM, single replicates.
Setting [9] is: PBMC + LPS(5 ug/ml) + test article 10 uM, Mean.
Where [10] appears, read: PBMC + LPS(5 ug/ml) + test article 10 uM, single replicates.
Setting [11] is: PBMC + LPS(5 ug/ml) + test article 100 uM, Mean.
Where [12] appears, read: PBMC + LPS(5 ug/ml) + test article 100 uM, single replicates.

Regarding `CC(C)C[C@H](NC(=O)CNC(=O)[C@H](CC(C)C)NC(=O)[C@H](CCC(N)=O)NC(=O)CNC(=O)[C@@H]1C[C@@H](O)CN1)C(=O)N[C@@H](C)C(=O)NCC(=O)N1CCC[C@H]1C(=O)N[C@@H](CCCCN)C(=O)O` [YDE-011] (H-[Hyp]GQLGLAGPK-OH), the “GM-CSF Concentration” value reads like this: under setting [1], 97.0 pg/mL; under setting [2], 92.5 pg/mL and 96.3 pg/mL and 102.1 pg/mL; under setting [3], 103.2 pg/mL; under setting [4], 90.4 pg/mL and 108.0 pg/mL and 111.3 pg/mL; under setting [5], 95.6 pg/mL; under setting [6], 100.5 pg/mL and 90.8 pg/mL and 95.4 pg/mL. Moreover, the “GM-CSF Concentration” value is, setting by setting: under setting [7], 93.9 pg/mL; under setting [8], 96.3 pg/mL and 92.5 pg/mL and 92.9 pg/mL; under setting [9], 98.2 pg/mL; under setting [10], 103.0 pg/mL and 92.9 pg/mL and 98.8 pg/mL; under setting [11], 135.7 pg/mL; under setting [12], 149.0 pg/mL and 127.8 pg/mL and 130.3 pg/mL. The GM-CSF conc/live cell is 18.3 pg/10^5 under setting [1]; 20.6 pg/10^5 and 16.6 pg/10^5 and 17.6 pg/10^5 under setting [2]; 17.9 pg/10^5 under setting [3]; 14.3 pg/10^5 and 17.4 pg/10^5 and 21.8 pg/10^5 under setting [4]; 16.7 pg/10^5 under setting [5]; 15.2 pg/10^5 and 18.2 pg/10^5 and 16.7 pg/10^5 under setting [6]. The GM-CSF conc/live cell under setting [7] amounted to 18.7 pg/10^5; the GM-CSF conc/live cell under setting [8] is 17.5 pg/10^5 and 19.3 pg/10^5 and 19.4 pg/10^5; the GM-CSF conc/live cell under setting [9] came out at 18.7 pg/10^5; the GM-CSF conc/live cell under setting [10] was 19.1 pg/10^5 and 16.0 pg/10^5 and 21.0 pg/10^5; the GM-CSF conc/live cell under setting [11] was found to be 22.4 pg/10^5; the GM-CSF conc/live cell under setting [12] is 24.4 pg/10^5 and 21.0 pg/10^5 and 21.7 pg/10^5.

Regarding `CC(C)C[C@H](NC(=O)[C@H](CCC(N)=O)NC(=O)CNC(=O)[C@@H]1C[C@@H](O)CN1)C(=O)NCC(=O)O` [YDE-043] (H-[Hyp]GQLG-OH; N-terminus and C-terminus assumed), the “GM-CSF Concentration” value is, setting by setting: under setting [1], 96.8 pg/mL; under setting [2], 85.3 pg/mL and 103.8 pg/mL and 101.3 pg/mL; under setting [3], 92.9 pg/mL; under setting [4], 94.6 pg/mL and 86.1 pg/mL and 97.9 pg/mL; under setting [5], 92.5 pg/mL; under setting [6], 87.8 pg/mL and 91.2 pg/mL and 98.4 pg/mL. In addition, the “GM-CSF Concentration” value runs as follows: under setting [7], 91.6 pg/mL; under setting [8], 89.5 pg/mL and 92.1 pg/mL and 93.3 pg/mL; under setting [9], 101.0 pg/mL; under setting [10], 102.1 pg/mL and 96.3 pg/mL and 104.6 pg/mL; under setting [11], 137.2 pg/mL; under setting [12], 140.1 pg/mL and 134.4 pg/mL. In addition, the GM-CSF conc/live cell was 19.6 pg/10^5 under setting [1]; 19.4 pg/10^5 and 17.3 pg/10^5 and 22.0 pg/10^5 under setting [2]; 17.9 pg/10^5 under setting [3]; 21.0 pg/10^5 and 13.1 pg/10^5 and 19.6 pg/10^5 under setting [4]; 17.1 pg/10^5 under setting [5]; 17.6 pg/10^5 (2×) and 16.3 pg/10^5 under setting [6]. For the same molecule, the GM-CSF conc/live cell by setting is: under setting [7], 17.4 pg/10^5; under setting [8], 15.4 pg/10^5 and 19.2 pg/10^5 and 17.6 pg/10^5; under setting [9], 18.7 pg/10^5; under setting [10], 19.6 pg/10^5 and 17.8 pg/10^5 and 18.7 pg/10^5; under setting [11], 21.8 pg/10^5; under setting [12], 22.6 pg/10^5 and 21.0 pg/10^5.
